This note sets out measurements from PubChem BioAssay AID330 (DTP/NCI, 2004).

In this assay the test system is P388 leukemia ip, CD2F1 mice, survival T/C. Kind of assay: NCI In Vivo Anticancer Drug Screen. Data for tumor model P388 Leukemia (intraperitoneal) in CD2F1 (CDF1) mice. As to conditions: endpoint: median survival time, higher = longer survival. An outline of the steps: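 Mice carrying the transplanted tumor received test compound or vehicle. Survival was recorded in each group, and the value is the treated-group measurement divided by that of the vehicle-treated control group.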

Where [1] appears, read: dose: 12.5 mg/kg/injection, schedule: Q01DX009 (ip), vehicle: Klucel (hydroxypropylcellulose) (HPC).
Where [2] appears, read: dose: 50.0 mg/kg/injection, schedule: Q01DX005 (ip), vehicle: Klucel (hydroxypropylcellulose) (HPC).
[3] abbreviates: dose: 100.0 mg/kg/injection, schedule: Q01DX005 (ip), vehicle: Klucel (hydroxypropylcellulose) (HPC).
[4] abbreviates: dose: 25.0 mg/kg/injection, schedule: Q01DX009 (ip), vehicle: saline.
The mark [5] stands for this setting: dose: 50.0 mg/kg/injection, schedule: Q01DX009 (ip), vehicle: saline with Tween-80.
Setting [6] is: dose: 50.0 mg/kg/injection, schedule: Q01DX009 (ip), vehicle: saline.
[7] abbreviates: dose: 100.0 mg/kg/injection, schedule: Q01DX009 (ip), vehicle: saline with Tween-80.
The mark [8] stands for this setting: dose: 200.0 mg/kg/injection, schedule: Q01DX009 (ip), vehicle: saline with Tween-80.
Where [9] appears, read: dose: 400.0 mg/kg/injection, schedule: Q01DX009 (ip), vehicle: Klucel (hydroxypropylcellulose) (HPC).
The mark [10] stands for this setting: dose: 60.0 mg/kg/injection, schedule: Q01DX005 (ip), vehicle: saline with Tween-80.
Where [11] appears, read: dose: 120.0 mg/kg/injection, schedule: Q01DX005 (ip), vehicle: saline with Tween-80.
The mark [12] stands for this setting: dose: 240.0 mg/kg/injection, schedule: Q01DX005 (ip), vehicle: saline with Tween-80.
[13] abbreviates: dose: 50.0 mg/kg/injection, schedule: Q01DX009 (ip), vehicle: Klucel (hydroxypropylcellulose) (HPC).
Where [14] appears, read: dose: 100.0 mg/kg/injection, schedule: Q01DX009 (ip), vehicle: Klucel (hydroxypropylcellulose) (HPC).
[15] abbreviates: dose: 200.0 mg/kg/injection, schedule: Q01DX009 (ip), vehicle: Klucel (hydroxypropylcellulose) (HPC).
Where [16] appears, read: dose: 200.0 mg/kg/injection, schedule: Q01DX005 (ip), vehicle: Klucel (hydroxypropylcellulose) (HPC).

Structures are written as SMILES. “And” between values parts separate entries of the source, which are not always exact repeats. Equal values may be shown once. Toxic doses and inconclusive results are not listed. Square brackets hold non-standard residues; d marks the D form. Peptide text beside a SMILES is read from it. * marks the point of attachment. ξ: configuration not given here. Cbz = O=C(OCc1ccccc1)*; ξNva = CCCC(N)C(=O)O

Take `CCOC(=O)Nc1cc2c(c(N)n1)N=C(c1ccc(Cl)cc1)CN2`: the T/C runs as follows: (dose: 1.5 mg/kg/injection, schedule: Q01DX009 (ip), vehicle: Klucel (hydroxypropylcellulose) (HPC)) 92 % of control; (dose: 3.0 mg/kg/injection, schedule: Q01DX009 (ip), vehicle: Klucel (hydroxypropylcellulose) (HPC)) 111 % of control; (dose: 12.0 mg/kg/injection, schedule: Q01DX009 (ip), vehicle: Klucel (hydroxypropylcellulose) (HPC)) 95 % of control; under setting [1], 86 % of control; (dose: 50.0 mg/kg/injection, schedule: Q04DX003 (ip), vehicle: Klucel (hydroxypropylcellulose) (HPC)) 101 % of control.
In the case of `COc1cc([N+](=O)[O-])c(S(=O)(=O)O)cc1N=N/C(=N/Nc1cc(S(=O)(=O)O)c([N+](=O)[O-])cc1OC)C(=O)Nc1ccccc1`, the T/C reads like this: under setting [2], 95 % of control; under setting [3], 93 % of control.
In the case of `CCC(=O)Oc1ccc[nH]c1=O`, the T/C is 101 % of control (dose: 25.0 mg/kg/injection, schedule: Q01DX009 (ip), vehicle: saline with Tween-80); 105 % of control and 92 % of control under setting [4]; 100 % of control under setting [5]; 100 % of control and 110 % of control under setting [6]; 100 % of control under setting [7]; 103 % of control and 94 % of control (dose: 100.0 mg/kg/injection, schedule: Q01DX009 (ip), vehicle: saline). The T/C under setting [8] was 112 % of control and 121 % of control; the T/C (dose: 300.0 mg/kg/injection, schedule: Q01DX009 (ip), vehicle: saline) was 115 % of control and 116 % of control; the T/C under setting [9] is 123 % of control; the T/C (dose: 400.0 mg/kg/injection, schedule: Q01DX009 (ip), vehicle: saline with Tween-80) is 122 % of control; the T/C (dose: 500.0 mg/kg/injection, schedule: Q01DX009 (ip), vehicle: Klucel (hydroxypropylcellulose) (HPC)) was 154 % of control; the T/C (dose: 600.0 mg/kg/injection, schedule: Q01DX009 (ip), vehicle: saline with Tween-80) was 122 % of control. The T/C (dose: 600.0 mg/kg/injection, schedule: Q01DX009 (ip), vehicle: saline) is 124 % of control.
`FC(F)(Cl)c1nc2nc(Cl)c(Cl)nc2[nH]1`: the T/C was 100 % of control (dose: 50.0 mg/kg/injection, schedule: Q01DX009 (ip), vehicle: other); 95 % of control (dose: 50.0 mg/kg/injection, schedule: Q04DX003 (ip), vehicle: other); 114 % of control (dose: 100.0 mg/kg/injection, schedule: Q01DX009 (ip), vehicle: other); 110 % of control (dose: 100.0 mg/kg/injection, schedule: Q04DX003 (ip), vehicle: other); 105 % of control (dose: 200.0 mg/kg/injection, schedule: Q04DX003 (ip), vehicle: other).
With `c1ccc2c(c1)Cc1c-2nc2ccccc2c1N1CCOCC1`, the T/C runs as follows: (dose: 25.0 mg/kg/injection, schedule: Q01DX005 (ip), vehicle: saline with Tween-80) 100 % of control; (dose: 50.0 mg/kg/injection, schedule: Q01DX005 (ip), vehicle: saline with Tween-80) 106 % of control and 93 % of control; (dose: 100.0 mg/kg/injection, schedule: Q01DX005 (ip), vehicle: saline with Tween-80) 103 % of control and 112 % of control; (dose: 200.0 mg/kg/injection, schedule: Q01DX005 (ip), vehicle: saline with Tween-80) 119 % of control.
As to `COC(=O)c1cc(-c2ccc(N)cc2)c2c(=O)n(-c3ccccc3)[nH]c2n1`, the T/C was 100 % of control under setting [10], 91 % of control under setting [11] and 87 % of control under setting [12].
For `C[n+]1ccc(CC(Cc2cc[n+](C)cc2)c2ccc(Br)cc2)cc1`, the T/C runs as follows: (dose: 6.25 mg/kg/injection, schedule: Q01DX009 (ip), vehicle: Klucel (hydroxypropylcellulose) (HPC)) 110 % of control; under setting [1], 110 % of control; (dose: 25.0 mg/kg/injection, schedule: Q01DX009 (ip), vehicle: Klucel (hydroxypropylcellulose) (HPC)) 108 % of control.
In the case of `CCN(CC)CCCC(C)Nc1cc(C)c2nc(C)cc(C)c2c1C` (stereo not given), the T/C by setting is: (dose: 12.5 mg/kg/injection, schedule: Q01DX009 (ip), vehicle: saline) 98 % of control; under setting [4], 97 % of control; under setting [5], 100 % of control; under setting [6], 90 % of control.
Take `CCOc1cc2c(cc1Cc1ccc(OC)cc1OC)OCO2`: the T/C is 104 % of control and 107 % of control and 112 % of control under setting [10]; 102 % of control and 107 % of control under setting [11]; 111 % of control and 123 % of control under setting [12]; 118 % of control (dose: 480.0 mg/kg/injection, schedule: Q01DX005 (ip), vehicle: saline with Tween-80).
`Cc1ccc(NC(=O)N(C)N=O)cc1`: the T/C is, setting by setting: under setting [5], 95 % of control; (dose: 50.0 mg/kg/injection, schedule: Q04DX003 (ip), vehicle: saline with Tween-80) 100 % of control; under setting [7], 90 % of control; (dose: 100.0 mg/kg/injection, schedule: Q04DX003 (ip), vehicle: saline with Tween-80) 100 % of control; under setting [8], 90 % of control; (dose: 200.0 mg/kg/injection, schedule: Q04DX003 (ip), vehicle: saline with Tween-80) 100 % of control.
As for `COC(=O)Cn1/c(=N\N=C(/C)c2ccc([N+](=O)[O-])cc2)sc2ccccc21`, the T/C (dose: 12.5 mg/kg/injection, schedule: Q01DX001 (ip), vehicle: saline with Tween-80) was 92 % of control; the T/C (dose: 25.0 mg/kg/injection, schedule: Q01DX001 (ip), vehicle: saline with Tween-80) was 89 % of control; the T/C (dose: 50.0 mg/kg/injection, schedule: Q01DX001 (ip), vehicle: saline with Tween-80) was 89 % of control; the T/C (dose: 400.0 mg/kg/injection, schedule: Q01DX001 (ip), vehicle: saline with Tween-80) is 88 % of control.
Consider `O=C1/C(=C/c2ccc(Br)cc2)CCc2ccccc21`, for which the T/C is 105 % of control under setting [13], 111 % of control under setting [14] and 105 % of control under setting [15].
Consider `COC1=C[C@@H](C)[C@@H]2C[C@H]3O[C@@H](OC4OC(CO)C(O)C(O)C4O)C[C@H]4C(C)=C(OC)C(=O)[C@H]([C@@]2(C)C1=O)[C@@]34C` (stereo not given in full), for which the T/C (dose: 4.0 mg/kg/injection, schedule: Q01DX005 (ip), vehicle: Klucel (hydroxypropylcellulose) (HPC)) was 96 % of control; the T/C (dose: 8.0 mg/kg/injection, schedule: Q01DX005 (ip), vehicle: Klucel (hydroxypropylcellulose) (HPC)) is 94 % of control; the T/C (dose: 16.0 mg/kg/injection, schedule: Q01DX005 (ip), vehicle: Klucel (hydroxypropylcellulose) (HPC)) is 103 % of control.
In the case of `CC(=O)O[C@H]1CC[C@H]2[C@@H]3CCC(=O)CC(=O)CCC(=O)[C@H]3CC[C@]12C`, the T/C was 108 % of control under setting [2], 109 % of control under setting [3] and 105 % of control under setting [16].
Turning to `O=C1NC(c2ccccc2Cl)Nc2ccccc21` (stereo not given), the T/C is, setting by setting: under setting [13], 94 % of control; under setting [14], 92 % of control; under setting [15], 95 % of control; under setting [9], 90 % of control.
Turning to `COc1ccc(C(c2c(O)c3ccccc3oc2=O)N2CCOCC2)c(OC)c1` (stereo not given), the T/C was 99 % of control under setting [10] and 107 % of control under setting [11].
Consider `CC1CN1C1=C(Cl)C(=O)C(N2CC2C)=C(Cl)C1=O` (stereo not given), for which, for the setting “dose: 3.12 mg/kg/injection, schedule: Q01DX009 (ip), vehicle: Klucel (hydroxypropylcellulose) (HPC)”, the T/C was 115 % of control.
Turning to `CC1=N/C(=C\c2ccccc2)C(=O)N1c1ccccc1`, the T/C reads like this: under setting [3], 98 % of control; under setting [16], 104 % of control; (dose: 400.0 mg/kg/injection, schedule: Q01DX005 (ip), vehicle: Klucel (hydroxypropylcellulose) (HPC)) 105 % of control.
For the compound `COc1cccc(C(Cc2ccccc2)Nc2ccccc2)c1OC` (stereo not given), the T/C is 94 % of control (dose: 3.0 mg/kg/injection, schedule: Q01DX005 (ip), vehicle: Klucel (hydroxypropylcellulose) (HPC)); 93 % of control (dose: 6.0 mg/kg/injection, schedule: Q01DX005 (ip), vehicle: Klucel (hydroxypropylcellulose) (HPC)); 93 % of control (dose: 12.0 mg/kg/injection, schedule: Q01DX005 (ip), vehicle: Klucel (hydroxypropylcellulose) (HPC)); 92 % of control under setting [2]; 88 % of control under setting [16].
Consider `CCCC(NC(=O)OCc1ccccc1)C(=O)NCC(=O)O` (stereo not given) (Cbz-[ξNva]-Gly-OH), for which the T/C is 107 % of control under setting [2], 93 % of control under setting [3] and 91 % of control under setting [16].
